Biological target: T1, hCRTH2 (Homo sapiens, UniProt Q9Y5Y4)
T1 construct: expressed in transfected cells; host or cells: HEK (human embryonic kidney) cells expressing hCRTH2; membrane preparation
T1 sequence (Q9Y5Y4 1-395): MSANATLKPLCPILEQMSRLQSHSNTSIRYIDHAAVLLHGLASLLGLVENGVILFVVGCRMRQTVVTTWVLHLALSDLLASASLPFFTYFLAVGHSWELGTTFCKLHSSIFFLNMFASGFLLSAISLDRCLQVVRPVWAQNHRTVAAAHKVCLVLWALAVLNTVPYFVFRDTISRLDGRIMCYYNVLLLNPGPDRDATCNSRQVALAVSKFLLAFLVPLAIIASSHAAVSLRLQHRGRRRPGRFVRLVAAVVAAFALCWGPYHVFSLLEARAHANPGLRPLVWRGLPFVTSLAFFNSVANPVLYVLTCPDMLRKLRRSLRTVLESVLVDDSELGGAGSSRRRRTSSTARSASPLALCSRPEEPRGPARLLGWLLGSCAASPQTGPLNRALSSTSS
Experiment: Radioligand binding assay ([3H]PGD2 competition, HEK-hCRTH2 membranes)
How it was run: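 Competition against 3.0 nM [3H]PGD2 was run for 60 min at room temperature in pH 7.4 Tris-HCl buffer with EDTA, 2 mM MnCl2 and 1% DMSO, using 8-20 μg HEK-hCRTH2 membrane protein. 10 μM PGD2 set non-specific binding; filter-bound counts were read by scintillation.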

| Compound | Ki ([3H]PGD2 competition, Table B) [nM] | Ki ([3H]PGD2 binding, values in text) [nM] |
| --- | --- | --- |
| C[C@@H](NC(=O)c1ccc2nc(-c3ccccc3)c(CC3CC(C(=O)O)C3)nc2c1)c1ccc(F)cc1 (stereo partly drawn) [compound 422, (R)-3-((7-((1-(4-fluorophenyl)ethyl)carbamoyl)-3-phenylquinoxalin-2-yl)methyl)cyclobutanecarboxyl acid] | 2.1 to 20 |  |
| CC(CCCc1nc2cc(C(=O)N3CCN(c4ccccc4)CC3)ccc2nc1-c1ccc(C(F)(F)F)cc1)C(=O)O (stereo not shown) [compound 423, 2-methyl-5-(7-(4-phenylpperazine-1-carbonyl)-3-(4-(trifluoromethyl)phenyl)quinoxalin-2-yl) pentanoic acid] | 2.1 to 20 |  |
| O=C(O)CCCCc1nc2cc(C(=O)N3CC(c4cccc(Cl)c4)C3)ccc2nc1-c1ccc(Cl)cc1 [compound 425, 5-(3-(4-chlorophenyl)-7-(3-(3-chlorophenyl)azetidine-1-carbonyl)quinoxalin-2-yl)pentanoic acid] | 0.1 to 2 |  |
| O=C(O)CCCCc1nc2cc(C(=O)N3CC(c4ccc(Cl)cc4)C3)ccc2nc1-c1ccc(Cl)cc1 [compound 426, 5-(3-(4-chlorophenyl)-7-(3-(4-chlorophenyl)azetidine-1-carbonyl)quinoxalin-2-yl)pentanoic acid] | 0.1 to 2 |  |
| CC(CCCc1nc2cc(C(=O)N[C@H](C)c3ccc(Cl)cc3)ccc2nc1-c1ccc(F)cc1)C(=O)O (stereo partly drawn) [compound 427, 5-(7-(((R)-1-(4-chlorophenyl)ethyl)carbamoyl)-3-(4-fluorophenyl)quinoxalin-2-yl)-2-methylpentanoic acid] | 2.1 to 20 |  |
| CC(CCCc1nc2cc(C(=O)N[C@@H](C)c3ccc(Cl)cc3)ccc2nc1-c1ccc(F)cc1)C(=O)O (stereo partly drawn) [compound 428, 5-(7-(((S)-1-(4-chlorophenyl)ethyl)carbamoyl)-3-3-(4-fluorophenyl)quinoxalin-2-yl)-2-methylpentanoic acid] | 20.1 to 200 |  |
| CC(CCc1nc2cc(C(=O)N[C@H](C)c3ccc(F)cc3)ccc2nc1-c1ccc(Cl)cc1)CC(=O)O (stereo partly drawn) [compound 429, 5-(3-(4-chlorophenyl)-7-(((R)-1-(4-fluorophenyl)ethyl)carbamoyl)quinoxalin-2-yl)-3-methylpentanoic acid] | 0.1 to 2 |  |
| CC(CCc1nc2cc(C(=O)N[C@@H](C)c3ccc(F)cc3)ccc2nc1-c1ccc(F)cc1)CC(=O)O (stereo partly drawn) [compound 430, 5-(3-(4-fluorophenyl)-7-(((S)-1-(4-fluorophenyl)ethyl)carbamoyl)quinoxalin-2-yl)-3-methylpentanoic acid] | 2.1 to 20 |  |
| CC(CCc1nc2cc(C(=O)N[C@@H]3CCCc4ccccc43)ccc2nc1-c1ccc(F)cc1)CC(=O)O (stereo partly drawn) [compound 431, 5-(3-(4-fluorophenyl)-7-(((R)-1,2,3,4-tetrahydronaphthalen-1-yl)carbamoyl)quinoxalin-2-yl)-3-methylpentanoic acid] | 2.1 to 20 |  |
| CC(CCc1nc2cc(C(=O)N[C@H](C)c3ccc(F)cc3)ccc2nc1-c1ccc(F)cc1)CC(=O)O (stereo partly drawn) [compound 432, 5-(3-(4-fluorophenyl)-7-(((R)-1-(4-fluorophenyl)ethyl)carbamoyl)quinoxalin-2-yl)-3-methylpentanoic acid] | 0.1 to 2 |  |
| CC(CCc1nc2cc(C(=O)N[C@H]3CCCc4ccccc43)ccc2nc1-c1ccc(F)cc1)CC(=O)O (stereo partly drawn) [compound 433, 5-(3-(4-fluorophenyl)-7-(((S)-1,2,3,4-tetrahydronaphthalen-1-yl)carbamoyl)quinoxalin-2-yl)-3-methylpentanoic acid] | 2.1 to 20 |  |
| C[C@@H](NC(=O)c1ccc2nc(-c3ccc(Cl)cc3)c(CCCCC(=O)O)nc2c1)c1ccc(F)cn1 [compound 434, (R)-5-(3-(4-chlorophenyl)-7-((1-(5-fluoropyridin-2-yl)ethyl)carbamoyl)quinoxalin-2-yl)pentanoic acid] | 0.1 to 2 |  |
| C[C@H](NC(=O)c1ccc2nc(-c3ccc(Cl)cc3)c(CCCCC(=O)O)nc2c1)c1ccc(F)cn1 [compound 435, (S)-5-(3-(4-chlorophenyl)-7-((1-(5-fluoropyridin-2-yl)ethyl)carbamoyl)quinoxalin-2-yl)pentanoic acid] | 0.1 to 2 |  |
| O=C(O)CCCCc1nc2cc(C(=O)N3CCn4c(nnc4C(F)(F)F)C3)ccc2nc1-c1ccc(Cl)cc1 [compound 436, 5-(3-(4-chlorophenyl)-7-(3-(trifluoromethyl)-5,6,7,8-tetrahydro-[1,2,4]triazolo[4,3-a]pyrazine-7-carbonyl)quinoxalin-2-yl)pentanoic acid] | 20.1 to 200 |  |
| C[C@H](CCc1nc2cc(C(=O)N[C@H](C)c3ccc(F)cc3)ccc2nc1-c1ccc(F)cc1)CC(=O)O [compound 437, (R)-5-(3-(4-fluorophenyl)-7-(((R)-1-(4-fluorophenyl)ethyl)carbamoyl)quinoxalin-2-yl)-3-methylpentanoic acid] | 20.1 to 200 |  |
| C[C@@H](CCc1nc2cc(C(=O)N[C@H](C)c3ccc(F)cc3)ccc2nc1-c1ccc(F)cc1)CC(=O)O [compound 438, (S)-5-(3-(4-fluorophenyl)-7-(((R)-1-(4-fluorophenyl)ethyl)carbamoyl)quinoxalin-2-yl)-3-methylpentanoic acid] | 2.1 to 20 | 4.2 |
| C[C@H](CCc1nc2cc(C(=O)N[C@@H]3CCCc4ccccc43)ccc2nc1-c1ccc(F)cc1)CC(=O)O [compound 439, (R)-5-(3-(4-fluorophenyl)-7-(((R)-1,2,3,4-tetrahydronaphthalen-1-yl)carbamoyl)quinoxalin-2-yl)-3-methylpentanoic acid] | 2.1 to 20 |  |

| Compound | Ki ([3H]PGD2 competition, Table B) [nM] | Ki ([3H]PGD2 binding, values in text) [nM] |
| --- | --- | --- |
| C[C@@H](CCc1nc2cc(C(=O)N[C@@H]3CCCc4ccccc43)ccc2nc1-c1ccc(F)cc1)CC(=O)O [compound 440, (S)-5-(3-(4-fluorophenyl)-7-(((R)-1,2,3,4-tetrahydronaphthalen-1-yl)carbamoyl)quinoxalin-2-yl)-3-methylpentanoic acid] | 0.1 to 2 |  |
| C[C@H](CCc1nc2cc(C(=O)N[C@H](C)c3ccc(F)cc3)ccc2nc1-c1ccc(Cl)cc1)CC(=O)O [compound 441, (R)-5-(3-(4-chlorophenyl)-7-(((R)-1-(4-fluorophenyl)ethyl)carbamoyl)quinoxalin-2-yl)-3-methylpentanoic acid] | 2.1 to 20 |  |
| C[C@@H](CCc1nc2cc(C(=O)N[C@H](C)c3ccc(F)cc3)ccc2nc1-c1ccc(Cl)cc1)CC(=O)O [compound 442] | 0.1 to 2 |  |
| O=C(NCc1ccccc1)c1ccc2nc(-c3ccc(F)cc3)c(CCCC(F)(F)C(=O)O)nc2c1 [compound 443, 5-(7-(benzylcarbamoyl)-3-(4-fluorophenyl)quinoxalin-2-yl)-2,2-difluoropentanoic acid] | 2.1 to 20 |  |
| Cc1ccc(CNC(=O)c2ccc3nc(-c4ccccc4)c(CCCC(F)(F)C(=O)O)nc3c2)cc1 [compound 444] | 20.1 to 200 |  |
| O=C(O)Cc1cc(F)cc(CCc2nc3cc(C(=O)N4CCN(c5ccccc5)CC4)ccc3nc2-c2ccc(Cl)cc2)c1 [compound 445] | 2.1 to 20 |  |
| O=C(O)Cc1cc(F)cc(CCc2nc3cc(C(=O)NCc4ccc(Cl)cc4)ccc3nc2-c2ccc(Cl)cc2)c1 [compound 446] | 2.1 to 20 |  |
| CN(Cc1ccc(F)cc1)C(=O)c1ccc2nc(-c3ccc(Cl)cc3)c(CCc3cc(F)cc(CC(=O)O)c3)nc2c1 [compound 447, 2-(3-(2-(3-(4-chlorophenyl)-7-((4-fluorobenzyl)(methyl)carbamoyl)quinoxalin-2-yl)ethyl)-5-fluorophenyl)acetic acid] | 0.1 to 2 |  |
| CN(Cc1ccccc1)C(=O)c1ccc2nc(-c3ccc(Cl)cc3)c(CCc3cc(F)cc(CC(=O)O)c3)nc2c1 [compound 448, 2-(3-(2-(7-(benzyl(methyl)carbamoyl)-3-(4-chlorophenyl)quinoxalin-2-yl)ethyl)-5-fluorophenyl) acetic acid] | 0.1 to 2 |  |
| C[C@@H](NC(=O)c1ccc2nc(-c3ccc(Cl)cc3)c(CCc3cc(F)cc(CC(=O)O)c3)nc2c1)c1ccc(F)cc1 [compound 449] | 2.1 to 20 |  |
| C[C@H](NC(=O)c1ccc2nc(-c3ccc(Cl)cc3)c(CCc3cc(F)cc(CC(=O)O)c3)nc2c1)c1ccc(F)cc1 [compound 450, (S)-2-(3-(2-(3-(4-chlorophenyl)-7-((1-(4-fluorophenyl)ethyl)carbamoyl)quinoxalin-2-yl)ethyl)-5-fluorophenyl)acetic acid] | 2.1 to 20 |  |
| N#Cc1ccc(CNC(=O)c2ccc3nc(-c4ccc(Cl)cc4)c(CCc4cc(F)cc(CC(=O)O)c4)nc3c2)cc1 [compound 451, 2-(3-(2-(3-(4-chlorophenyl)-7-((4-cyanobenzyl)carbamoyl)quinoxalin-2-yl)ethyl)-5-fluorophenyl)acetio acid] | 2.1 to 20 |  |
| O=C(O)Cc1cc(F)cc(CCc2nc3cc(C(=O)N4CC(c5ccc(F)c(F)c5)C4)ccc3nc2-c2ccc(Cl)cc2)c1 [compound 452, 2-(3-(2-(3-(4-chlorophenyl)-7-(3-(3,4-difluorophenyl)azetidine-l-carbonyl)quinoxalin-2-yl)ethyl)-5-fluorophenyl) aceticacid] | 2.1 to 20 |  |
| CC(CCCc1nc2cc(C(=O)N[C@@H]3CCCc4ccccc43)ccc2nc1-c1ccccc1)C(=O)O (stereo partly drawn) [compound 453, 2-methyl-5-(3-phenyl-7-(((R)-1-yl)carbamoyl)quinoxalin-2-yl)pentanoic acid] | 2.1 to 20 |  |
| CC(CCCc1nc2cc(C(=O)N[C@@H]3CCCc4ccccc43)ccc2nc1-c1ccc(F)cc1)C(=O)O (stereo partly shown) [compound 454] | 2.1 to 20 |  |
| CC(CCCc1nc2cc(C(=O)N[C@@H]3CCCc4cc(Cl)ccc43)ccc2nc1-c1ccc(F)cc1)C(=O)O (stereo partly drawn) [compound 455, 5-(7-(((R)-6-chloro-1,2,3,4-tetrahydronaphthalen-1-yl)carbamoyl)-3-(4-fluorophenyl)quinoxalin-2-yl)-2-methylpentanoic acid] | 2.1 to 20 |  |

— patent US9469615B2, “Quinoxalines and AZA-quinoxalines as CRTH2 receptor modulators” (Merck Sharp & Dohme Corp., priority 2010, dated 2016)
